According to ChEMBL document CHEMBL1201862, “PubChem BioAssay data set” (2004):
Calls of active or inactive are those of the source.

Columns and labels:
Assay type in all cases: functional
[1] = biological target: Cyclin-dependent kinase 8 (Homo sapiens, UniProt P49336); experiment: Navigating the Kinome. Panel member name: CDK8
[2] = biological target: Vascular endothelial growth factor receptor 1 (Homo sapiens, UniProt P17948);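 also: measured within a kinome-wide profiling panel, FLT1 as the panel member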
Vascular endothelial growth factor receptor 1, sequence (P17948 whole entry): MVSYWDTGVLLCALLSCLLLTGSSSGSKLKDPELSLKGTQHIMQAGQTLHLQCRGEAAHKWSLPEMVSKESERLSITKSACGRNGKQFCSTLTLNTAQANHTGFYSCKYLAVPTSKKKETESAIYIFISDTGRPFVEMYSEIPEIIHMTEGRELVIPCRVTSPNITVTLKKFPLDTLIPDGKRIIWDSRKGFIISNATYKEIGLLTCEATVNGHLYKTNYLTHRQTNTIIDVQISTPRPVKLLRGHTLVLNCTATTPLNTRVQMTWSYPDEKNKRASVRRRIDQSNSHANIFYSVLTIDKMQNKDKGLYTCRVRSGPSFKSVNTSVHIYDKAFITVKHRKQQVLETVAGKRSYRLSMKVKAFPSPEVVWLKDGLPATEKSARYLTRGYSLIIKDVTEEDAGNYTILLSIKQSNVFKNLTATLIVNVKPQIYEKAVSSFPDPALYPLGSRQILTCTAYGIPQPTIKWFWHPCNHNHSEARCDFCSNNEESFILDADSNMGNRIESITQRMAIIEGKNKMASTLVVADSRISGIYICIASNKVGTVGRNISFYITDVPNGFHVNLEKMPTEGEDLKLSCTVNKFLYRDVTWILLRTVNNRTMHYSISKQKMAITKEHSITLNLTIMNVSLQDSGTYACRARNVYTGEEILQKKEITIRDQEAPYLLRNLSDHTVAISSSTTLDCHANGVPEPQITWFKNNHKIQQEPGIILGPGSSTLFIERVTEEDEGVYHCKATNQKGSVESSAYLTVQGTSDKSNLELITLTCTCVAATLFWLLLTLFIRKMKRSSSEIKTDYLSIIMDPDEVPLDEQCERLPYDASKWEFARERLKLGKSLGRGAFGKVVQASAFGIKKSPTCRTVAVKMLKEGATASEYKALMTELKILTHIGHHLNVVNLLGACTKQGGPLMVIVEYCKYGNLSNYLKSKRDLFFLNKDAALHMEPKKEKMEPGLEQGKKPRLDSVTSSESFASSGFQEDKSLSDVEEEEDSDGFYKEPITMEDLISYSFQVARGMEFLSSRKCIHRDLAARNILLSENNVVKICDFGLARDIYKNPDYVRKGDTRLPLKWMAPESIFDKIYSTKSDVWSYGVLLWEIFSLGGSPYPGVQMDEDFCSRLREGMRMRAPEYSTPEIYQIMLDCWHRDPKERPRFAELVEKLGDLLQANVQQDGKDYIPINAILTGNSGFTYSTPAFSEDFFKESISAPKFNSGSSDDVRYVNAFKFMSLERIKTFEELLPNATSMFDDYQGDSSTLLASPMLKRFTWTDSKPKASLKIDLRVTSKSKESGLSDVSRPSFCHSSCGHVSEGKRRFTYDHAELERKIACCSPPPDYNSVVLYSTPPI

[3] = biological target: T1, Mitogen-activated protein kinase kinase kinase kinase 2 (Homo sapiens, UniProt Q12851);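 also: measured as one member of a kinome-wide kinase panel, with MAP4K2 as the panel entry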
T1 sequence (Q12851 whole entry): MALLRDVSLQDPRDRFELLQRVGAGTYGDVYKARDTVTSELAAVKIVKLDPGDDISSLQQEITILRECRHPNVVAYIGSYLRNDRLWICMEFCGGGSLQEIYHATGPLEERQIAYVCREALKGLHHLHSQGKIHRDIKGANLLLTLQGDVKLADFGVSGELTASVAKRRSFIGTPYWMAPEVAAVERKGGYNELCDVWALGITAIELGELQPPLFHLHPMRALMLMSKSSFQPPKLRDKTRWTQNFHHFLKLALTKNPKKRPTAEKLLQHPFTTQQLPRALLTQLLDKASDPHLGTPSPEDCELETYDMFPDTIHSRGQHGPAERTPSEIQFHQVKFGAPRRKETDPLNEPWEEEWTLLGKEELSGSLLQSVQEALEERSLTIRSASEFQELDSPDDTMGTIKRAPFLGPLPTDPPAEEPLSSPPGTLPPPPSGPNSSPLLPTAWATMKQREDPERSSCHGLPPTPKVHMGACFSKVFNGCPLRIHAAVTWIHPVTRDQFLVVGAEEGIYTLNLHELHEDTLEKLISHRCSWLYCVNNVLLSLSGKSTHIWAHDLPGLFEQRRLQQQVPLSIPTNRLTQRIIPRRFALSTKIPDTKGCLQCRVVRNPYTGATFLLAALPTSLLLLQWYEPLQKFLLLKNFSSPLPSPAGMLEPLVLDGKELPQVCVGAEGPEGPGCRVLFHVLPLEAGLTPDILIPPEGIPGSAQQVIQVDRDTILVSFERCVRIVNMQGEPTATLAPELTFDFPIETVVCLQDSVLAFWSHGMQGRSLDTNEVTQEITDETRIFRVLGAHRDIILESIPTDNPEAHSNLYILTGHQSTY

[4] = biological target: T2, Serine/threonine-protein kinase Nek2 (Homo sapiens, UniProt P51955)
T2 sequence (P51955 whole entry): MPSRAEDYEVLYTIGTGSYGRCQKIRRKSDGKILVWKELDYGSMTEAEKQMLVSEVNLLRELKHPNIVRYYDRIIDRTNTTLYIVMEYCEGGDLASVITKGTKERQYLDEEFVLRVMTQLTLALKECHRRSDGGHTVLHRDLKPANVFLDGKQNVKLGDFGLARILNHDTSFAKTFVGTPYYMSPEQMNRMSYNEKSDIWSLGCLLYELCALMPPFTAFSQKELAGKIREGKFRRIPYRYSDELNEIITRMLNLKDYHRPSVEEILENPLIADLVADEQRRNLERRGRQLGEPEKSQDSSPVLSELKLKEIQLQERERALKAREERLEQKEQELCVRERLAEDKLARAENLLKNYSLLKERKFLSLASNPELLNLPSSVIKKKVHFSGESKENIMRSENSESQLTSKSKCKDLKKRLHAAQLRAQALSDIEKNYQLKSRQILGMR

[5] = biological target: T3, Sentrin-specific protease 6 (Homo sapiens, UniProt Q9GZR1);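 also: Luminescence-based dose-response confirmatory assay of SENP6 inhibition, following up an ultra-high-throughput screen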
T3 sequence (Q9GZR1 whole entry): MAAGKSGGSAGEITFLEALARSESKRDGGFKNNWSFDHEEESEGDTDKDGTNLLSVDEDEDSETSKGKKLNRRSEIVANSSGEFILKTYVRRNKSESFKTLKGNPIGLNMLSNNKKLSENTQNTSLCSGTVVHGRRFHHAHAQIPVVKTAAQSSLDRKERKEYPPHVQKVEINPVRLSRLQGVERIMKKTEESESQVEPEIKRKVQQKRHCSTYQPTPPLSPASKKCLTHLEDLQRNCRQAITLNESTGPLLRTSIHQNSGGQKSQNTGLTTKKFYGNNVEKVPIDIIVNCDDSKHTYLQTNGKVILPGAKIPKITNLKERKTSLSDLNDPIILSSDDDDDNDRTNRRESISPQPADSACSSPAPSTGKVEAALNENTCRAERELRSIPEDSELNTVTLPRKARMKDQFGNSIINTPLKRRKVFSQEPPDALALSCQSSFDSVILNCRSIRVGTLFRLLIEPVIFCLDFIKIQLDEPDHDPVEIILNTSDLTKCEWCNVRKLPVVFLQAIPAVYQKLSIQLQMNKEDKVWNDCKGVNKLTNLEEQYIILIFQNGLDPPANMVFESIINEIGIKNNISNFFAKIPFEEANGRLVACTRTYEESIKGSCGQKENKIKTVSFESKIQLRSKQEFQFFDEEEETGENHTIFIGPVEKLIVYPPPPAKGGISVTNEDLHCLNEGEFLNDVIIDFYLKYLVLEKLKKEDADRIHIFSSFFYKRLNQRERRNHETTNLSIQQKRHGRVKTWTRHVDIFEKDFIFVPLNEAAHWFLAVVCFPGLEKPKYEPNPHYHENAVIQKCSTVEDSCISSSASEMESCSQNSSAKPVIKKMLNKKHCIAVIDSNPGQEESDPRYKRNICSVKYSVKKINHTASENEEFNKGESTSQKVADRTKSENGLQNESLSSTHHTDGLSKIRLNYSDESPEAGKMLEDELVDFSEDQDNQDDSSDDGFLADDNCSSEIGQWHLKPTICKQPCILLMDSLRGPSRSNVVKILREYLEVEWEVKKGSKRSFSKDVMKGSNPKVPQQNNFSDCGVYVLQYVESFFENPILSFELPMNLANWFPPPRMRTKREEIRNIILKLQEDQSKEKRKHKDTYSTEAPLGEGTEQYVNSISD

Cyclin-dependent kinase 8, sequence (P49336 whole entry): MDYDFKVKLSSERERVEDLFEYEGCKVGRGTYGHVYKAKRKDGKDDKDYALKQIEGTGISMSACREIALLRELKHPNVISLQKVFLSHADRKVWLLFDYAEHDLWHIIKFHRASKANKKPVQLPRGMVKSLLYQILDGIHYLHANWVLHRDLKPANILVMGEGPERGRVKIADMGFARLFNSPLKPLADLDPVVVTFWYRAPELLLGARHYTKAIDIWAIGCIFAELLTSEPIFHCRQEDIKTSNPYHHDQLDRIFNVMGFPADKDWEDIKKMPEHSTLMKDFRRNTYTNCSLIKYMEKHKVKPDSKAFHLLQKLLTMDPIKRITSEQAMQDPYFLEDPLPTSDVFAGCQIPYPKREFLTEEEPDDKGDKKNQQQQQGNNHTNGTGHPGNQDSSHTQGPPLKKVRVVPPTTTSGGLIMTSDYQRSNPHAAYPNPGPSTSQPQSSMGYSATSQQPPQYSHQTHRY

Compound	Ki [1]	Ki [2]	Ki [3]	Ki [4]	IC50 [5]
Oc1nc(Nc2ccc(F)cc2)cc2ccccc12					2.99 µM (active)
CN(C)c1cc(N/N=C\c2ccccc2)nc(N(C)C)n1					6 µM (active)
O=C(NC1=C(Nc2ccc(F)cc2)C(=O)c2ccccc2C1=O)c1ccc(Cl)cc1					8.56 µM (active)

Continued, in another order:

Ki [1]	Ki [2]	Ki [3]	Ki [4]	Compound	IC50 [5]
1.58 µM (active)	0.000631 µM (active)	0.0158 µM (active)	1.26 µM (active)	NC(COc1cncc(-c2ccc3c(c2)C(=Cc2ccc[nH]2)C(=O)N3)c1)Cc1ccccc1 (stereo not given)	
25.1 µM (active)	79.4 µM (active)	31.6 µM (active)	39.8 µM (active)	O=C1Cc2cc(-c3ccccc3)cnc2N1	
> 3.98 µM (inactive)	0.02 µM (active)	0.0316 µM (active)	> 3.16 µM (inactive)	O=C1Nc2cc(-c3ccc(O)cc3)ccc2C1=Cc1ccc[nH]1	
